According to patent US20140322198A1, “COMPOSITION COMPRISING VICENIN-2 HAVING A BENEFICIAL EFFECT ON NEUROLOGICAL AND/OR COGNITIVE FUNCTION” (priority 2011, published 2014):
≈ marks a conversion by molar mass, not a printed value. Entries after “also recorded” stand apart in the source; their conditions may differ.

Columns and labels:
[1] = system: murine frontal cortex networks; experiment: Acute effects on cortical network activity (spike rate), MEA-neurochip multichannel recording; type: cell-based, mice
Experimental: Purpose of this example was the evaluation of the acute neuroactive effects of vicenin 2 (named AUC-V) and of Perilla extract (named AUC-P) comprising and standardized on Vicenin 2 on the neuronal activity of murine frontal cortex networks in vitro by means of electrophysiological multi-channel recordings. In this system, cells or tissues are grown directly on the chip surface and communicate via chemical and electrical signals. The MEA-neurochip allows the non-invasive, long-term, multisite recording of electrical signal patterns of primary neuronal networks. Said MEA-neurochip technology enables the characterization of network activity pattern on the single-cell action-potential level and on the level of complex neuronal networks as the basic functional units. This can also be used as a test system for investigating neuro-physiological properties of compounds. Despite the complexity, the neurophysiological action profiles of neuroactive compounds are sensitive and selective as well as robust and stable, allowing a precise pharmacological “fingerprinting” and the creation of a database of information on well-characterized neuroactive substances. The multiparametric description of the activity pattern changes caused by treatment of a brain-region-specific neuronal network is a sophisticated approach to quantify the complex effects of neuroactive agents, of unknown compounds, and of complex mixtures such as biological extracts. Correlation with well-known neuroactive substances and their specific pattern, available in specific databased, provides novel insights into the possible pharmacological and physiological mechanisms of modes of action of herbal preparations or isolated substances. […] The recorded electrical activity patterns were characterized by 200 features and their changes were statistically evaluated. […] Cultures were incubated at 37° C. in a 10% CO2 atmosphere until ready for use, which usually is four weeks to three months after seeding. […]

[2] = system: murine frontal cortex networks; experiment: Pattern recognition and classification of MEA activity patterns against NeuroProof database (105 substances); type: cell-based, mice; conditions: for % of data records classified as reference substance: AUC-V, all
Experimental: Afterwards, a further analysis was carried out through a pattern-recognition analysis and through comparison with NeuroProof database to determine relevant mechanisms involved in the frontal cortex activity pattern induced changes by each substance.
To clarify the mode of action of the test substance on the activity of cortical networks these experiments were further analyzed using methods of pattern recognition. For each stable concentration activity phase the 200 spike train parameters were normalized by the native reference activity.
Using a feature selection algorithm, on the basis of the reference substances, the 40 most descriptive parameters for all 200 spike train parameters were selected. The rankings of activity features using various score methods based on classification experiments and comparing their total correct predictions were calculated. In this manner, the best results for a MDL (minimal description length) modified algorithm were obtained. A training data set with these 40 spike train parameters was established in the form of data records from the reference substances. An artificial neuronal network, multi layer feed forward network and back propagation algorithm without hidden units was then trained. The respective data records of the four substances were all subsequently classified. A classification against 105 substances in the database was carried out.

TNFα = experiment: Ex vivo TNFα secretion in LPS-stimulated human whole blood; type: cell-based; conditions: ex vivo study, statement in words
Experimental: TNF alpha secretion [pg/ml] after co-incubation with LPS and Perilla extract of different concentration (1 μg/ml, 2.5 μg/ml and 50 μg/ml) against 450 μg/ml a benchmark blend, containing e.g. Boswellia extract, Omega 3 fatty acids, ALA and Curcumin. This study investigated the efficacy of Perilla extract comprising vicenin 2 to contribute to reduce TNFα levels. The study was designed as an ex vivo study, where human whole blood samples were treated with LPS, a bacterial blend, to stimulate inflammation which leads to an increase of the cytokine TNFα. Furthermore, the effect to reduce TNFα by Perilla extract was measured in comparison to a negative and positive control.

SMILES: O=c1cc(-c2ccc(O)cc2)oc2c([C@@H]3O[C@H](CO)[C@@H](O)[C@H](O)[C@H]3O)c(O)c([C@@H]3O[C@H](CO)[C@@H](O)[C@H](O)[C@H]3O)c(O)c12 [vicenin 2, 5,7-Dihydroxy-2-(4-hydroxyphenyl)-6,8-bis[(2S,3R,4R,5S,6R)-3,4,5-trihydroxy-6 (hydroxymethyl)oxan-2-yl]chromen-4-one]
- EC50 ([1]; Mus musculus, spike rate, frontal cortex networks in vitro, 9 accumulating concentrations, read-out: EC50 of decrease of the cortical network activity): 0.002 ng/mL (≈ 0.00336 nM)
- effects on burst structure and oscillatory behaviour of the network ([1]; cortical network activity pattern): no affects on the burst structure, however on the oscillatory behaviour of the network
- maximum decrease to % of the native activity ([1]; cortical network activity, native activity = 100%): 80%
- % of data records classified as reference substance ([2]; classified as Amisulpride): 15%
- % of data records classified as reference substance ([2]; classified as Atropinemethylbromide): 12%
- % of data records classified as reference substance ([2]; classified as DPDPE): 11%
- % of data records classified as reference substance ([2]; classified as Enkephalin): 14%
- % of data records classified as reference substance ([2]; classified as Eserine): 15%
- % of data records classified as reference substance ([2]; classified as Indatraline): 12%
- % of data records classified as reference substance ([2]; classified as Modafinil): 12%
- % of data records classified as reference substance ([2]; classified as Nicotine): 12%
- % of data records classified as reference substance ([2]; classified as Olanzapine): 17%
- % of data records classified as reference substance ([2]; classified as Sodium dodecyl sulfate): 12%
- activity identified by the classification ([2]; classification against reference substances (Amisulpride, Muscimol, Enkephalin)): sedative and anxiolytic activity; also recorded: enkephalin-like activity
- electrophysiological multi-channel recording pattern compared with positive controls ([2]; similarity to reference substances, in words): comparable with the pattern of the positive control eserine and nicotine; also recorded: comparable with the pattern of the positive control of carboxolone; also recorded: effects similar to amisulpride
- anti-inflammatory effects (TNFα): anti-inflammatory effects
